# Assay results published in patent US7709566B2, “Polytetrafluoroethylene aqueous dispersion and its product” (Asahi Glass Company, Limited, priority 2005, dated 2010).
# Tests used:
# [1] = Measurement of 1-octanol/water partition coefficient (LogPOW) by HPLC, OECD Test Guideline 117; assay type: physicochemical; settings: for LogPOW: 1-octanol/water, HPLC, OECD Test Guideline 117, column temperature 40° C.; for bioaccumulation potential: judged from the LogPOW value, compared to APFO
# Method: In accordance with OECD Test Guideline 117, 1-octanol/water partition coefficient (LogPOW) of a fluorinated emulsifier was measured by using HPLC (high performance liquid chromatography).
# Conditions for the measurement were as follows: column: TOSOH ODS-120T column (φ 4.6 mm×250 mm), eluent: acetonitrile/0.6 mass % of HClO4 solution=1/1 (vol/vol %), flow rate: […], sample amount: 300 μL, column temperature: 40° C., and detection light: UV 210 nm (WO2005-42593).
# HPLC was carried out on standard substances (heptanoic acid, octanoic acid, nonanoic acid and decanoic acid) having known 1-octanol/water partition coefficients, and a calibration curve was prepared from the respective elution times and octanol/water partition coefficients of the respective standard substances. Based on this calibration curve, a value of partition coefficient (LogPOW) between 1-octanol and water was calculated from the elution time by HPLC of the fluorinated emulsifier.
# Further, in general, in order to judge whether or not a chemical substance is apt to be accumulated in a living organism, a testing method for measurement of a partition coefficient (LogPOW) between 1-octanol and water, is stipulated. As the testing method, in addition to “Partition Coefficient (1-octanol/water) Shake Flask Method” as stipulated in OECD test guideline 107 and in Japanese Industrial Standards Z 7260-107 (2000), a HPLC method (high-performance liquid chromatography) as stipulated and published in OECD Test Guideline 117, is used. A compound having a large partition coefficient value has a large tendency for bioaccumulation, and a compound having a small value means a small tendency for bioaccumulation. In a case where the LogPOW value is less than 3.5, it is considered proper to judge that it is not a high-concentration, and bioaccumulation is also considered to be small.
# small animal = settings: it has been pointed out; cited from earlier work
compound,measurement,setting,value
"N.O=C(O)C(F)(F)C(F)(F)C(F)(F)C(F)(F)C(F)(F)C(F)(F)C(F)(F)F [CF3(CF2)6COONH4, ammonium perfluorooctanoate]",LogPOW,[1],3.67
same,accumulation potential in a body of a small animal,small animal,has an accumulation potential
N.O=C(O)C(F)(OC(F)(F)C(F)(OC(F)(F)C(F)(F)F)C(F)(F)F)C(F)(F)F (stereo not drawn) [CF3CF2OCF(CF3)CF2OCF(CF3)COONH4],LogPOW,[1],4.03
same,bioaccumulation potential,[1],high and higher bioaccumulation potential than APFO
CF3CF2OCF2CF2OCF2COONH4,LogPOW,[1],3.13
same,bioaccumulation potential,[1],low
